Molecules are shown by their SMILES. Where two headings read alike, the source gives them in different places.

In series [1] the test system is human melanoma CRL-2813 cells. Kind of series: sulforhodamine B (SRB) cell proliferation assay. The format is cell-based. To be noted: 5 days, read-out: IC50 (concentration that inhibits growth of human melanoma CRL-2813 cells by 50%).
For a further series, the system named is human melanoma. To be noted: xenograft mice model of human melanoma; cited from earlier work.

Compound `N#Cc1cc(NC(=O)N[C@H]2C[C@H](Oc3ccc(C(F)(F)F)cc3)C2)cc(C(F)(F)F)c1` [Compound 1-IV, 1-(3-Cyano-5-(trifluoromethyl)phenyl)-3-(trans-3-(4-(trifluoromethyl)phenoxy)cyclobutyl)urea] yielded a melting point of 191.6 to 193 °C. For the same compound, the IC50 in series [1] (Homo sapiens, CRL2813, 120 h) came out at 900 nM.

As for `N#Cc1cc(NC(=O)N[C@H]2CC[C@H](Oc3ccc(C(F)(F)F)cc3)CC2)cc(C(F)(F)F)c1` [Compound 1-VI, 1-(3-cyano-5-trifluoromethyl) phenyl-3-(trans-4-(4-(trifluoromethyl)phenoxy)cyclohexyl)urea, reference compound], in the series with human melanoma, the in vivo efficacy entry is “in vivo efficacy” and the organ toxicity entry was “no apparent organ toxicity”. Besides, in series [1], the IC50 is 350 nM.

On to `N#Cc1cc(F)cc(NC(=O)N[C@H]2CC[C@H](Oc3ccc(C(F)(F)F)cc3)CC2)c1` [Compound 4-VI, 1-(3-Cyano-5-fluorophenyl)-3-(trans-4-(4-(trifluoromethyl)phenoxy)cyclohexyl)urea], for which the melting point fell in the range of 237.8 to 240.8 °C. Besides, the IC50 in series [1] stood at 630 ± 300 nM.

With `N#Cc1ccc(NC(=O)N[C@H]2CC[C@H](Oc3ccc(C(F)(F)F)cc3)CC2)cc1F` [Compound 5-VI, 1-(4-Cyano-3-fluorophenyl)-3-(trans-4-(4-(trifluoromethyl)phenoxy)cyclohexyl)urea], the IC50 in series [1] (Homo sapiens, CRL2813, 120 h) came out at 460 nM.

The values above are taken from patent US20240076272A1, “Activators of Heme Regulated Inhibitor Kinase (HRI)” (The Brigham and Women`s Hospital, Inc., priority 2019, published 2024).
